From patent US6750348B1, “Chemokine receptor binding heterocyclic compounds” (AnorMED, Inc., priority 1999, dated 2004)

What was measured:
Type in all cases: cell-based
[1] = system: SDF-1α induced Ca flux in SUP-T1 cells; experiment: Inhibition of SDF-1α induced Ca flux in SUP-T1 cells (FLIPR); settings: Homo sapiens, at 20 μg/mL, read-out: inhibited SDF-1α induced Ca flux
Description: (§1) Loading dye: Fluo-3, AM (Molecular Probes F-1241) is dissolved in anhydrous DMSO and stored frozen in aliquots. To increase the solubility of the dye in the loading medium, 10% (w/v) pluronic acid (Molecular Probes F-127) is added to the Fluo-3 stock solution immediately before use.
(§2) HBSS+20 mM Hepes buffer+0.2% BSA, pH 7.4. HBSS 10× [(w/o phenol red and sodium bicarbonate (Gibco 14 065-049)]; Hepes buffer 1M (Gibco 15 630-056), BSA (Sigma A3675). The flux buffer is vacuum-filtered and stored refrigerated for a maximum of 5 days. Before use in the experiment, the buffer is warmed at 37° C. in a waterbath.
(§3) The test compounds were diluted in flux buffer and added to 4 wells of a black microplate (4 parallel measurements per compound).
(§4) The chemokines are diluted in flux buffer to concentrations that are 4-fold higher than the desired concentrations required for stimulation of the cells (i.e. 2.5 nM for SDF-1α and 0.6 nM for RANTES). The chemokines were added to untreated 96-well Sero well compound plates (International Medical, Sterilin code 611F96). In the negative control well's (baseline monitoring), flux buffer is added instead of chemokine. As a positive control to check for dye loading efficiency, 20 μM digitonin (final concentration) was also included. The agonist plate was incubated in the FLIPR (37° C.) for 15-30 min.
SUP-T1 cells were centrifuged at room temperature (RT) and re-suspended in loading medium (RPMI-1640 containing 2% FBS and 4 μM Fluo-3, AM). The cells were incubate at room temperature for 45 min. then washed twice in flux buffer then incubated in flux buffer at room temperature for 10 min. The cells were centrifuged and re-suspended in flux buffer at a density of 3×10^6 cells per mL. […] The microplate is then gently centrifuged at room temperature. Homogeneous spreading of the cells on the bottom of the microplate wells was then confirmed with a microscope and the microplate was incubated in the FLIPR (37° C.) for 10 min. prior to testing.
(§5) The FLIPR settings (camera exposure time and laser power) are adjusted to obtain initial fluorescence values between 8,000 and 10,000 units. After monitoring a 20 second-baseline, the agonist (chemokine) (50 μL) is added by automatic pipettor with black pipette tips. Fluorescence is measured simultaneously in all wells of the microplate every 2 seconds (first 2 min) and thereafter every 6 seconds (additional 2 min). The average ca-flux measured in each set of 4 identical wells (one test compound) was calculated by the FLIPR software.
The compounds of the current invention were tested for inhibition of SDF-1α induced Ca flux in SUP-T1 cells using the method described above.

HIV-1 NL4.3 or IIIB = experiment: Inhibition of HIV-1 (NL4.3 or IIIB) replication in MT-4 cells (MTT); settings: Human immunodeficiency virus 1, IIIB, MT4, read-out: EC50, inhibition of HIV-1 NL4.3 or IIIB replication
Procedure, shortened: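 CXCR4-tropic virus infected MT-4 cells at MOI 0.01 (100× CCID50) across a range of compound concentrations, with cytotoxicity run in parallel. Viable cells counted by MTT after 5 days. EC50 is the concentration protecting 50% of infected cells from viral cytopathicity.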

HIV-1 BaL (CCR5 using) = experiment: Inhibition of HIV-1 (BaL) replication in PHA-stimulated PBMC's (MTT); settings: Human immunodeficiency virus 1, BAL, MTT assay
Description: Compounds were tested for their ability to inhibit HIV-1 replication in MT-4 cells or PBMC's (peripheral blood mononucleocytes) using published procedures (for example, see: Labrosse et al. J. Virol. 1998, 6381-6388; Simmons et al. J. Virol. 1998, 8453-8457; Donzella et al. Nature Medicine 1998, 72-77; Schols et al. J. Exp. Med. 1997, 1383-1388; De Clercq et al. Antiviral Res. 1997, 147-156; and Bridger et al. U.S. patent application Ser. No. 09/111,895). In addition to the above references, experimental methods for performing anti-viral assays can also be found in: Bridger et al. J. Med. Chem. 1995, 38, 366-378; Bridger et al. J. Med. Chem. 1996, 39, 109-119; Bridger et al. U.S. Pat. No. 5,698,546; Bridger et al. U.S. Pat. No. 5,583,131; Bridger et al. U.S. Pat. No. 5,817,807; De Clercq et al. Antimicrob. Agents and Chemother. 1994, 38, 668-674.
The HIV-1 strain BaL is M-tropic (macrophage tropic) strain that exclusively uses CCR5 as a co-receptor for entry into cells. PBMC's (from healthy donors) express all chemokine receptors including CXCR4 and CCR5.

[2] = system: RANTES induced Ca flux in U87.CCR5 cells; experiment: Inhibition of RANTES induced Ca flux in U87.CCR5 cells (FLIPR); settings: U-87-CCR5, at 20 μg/mL, read-out: inhibited RANTES induced Ca flux
Description: as §1, §2, §3, §4, §5
U87.CCR5 cells were seeded into the black microplates (Costar 3603) on the day before the experiment. The culture medium was removed from the cells and 100 μL of loading medium (DMEM+10% FBS+4 μM Fluo-3, AM) was added to each well and the plate was incubate at 37° C. for 45 min. The loading medium was then removed an the cells were washed twice with flux buffer using the CELL WASH microplate washer (Labsystems) followed by incubation in flux buffer for 10 min. at room temperature (the washing procedure was repeated twice). Finally, the wash buffer was removed from the microplate wells and 150 μL of the test compound, diluted in flux buffer to the desired concentration. The microplate was then incubated in the FLIPR drawer for 10 min. prior to testing. Measurements were performed as described above.
The compounds of the current invention were tested for inhibition of RANTES induced Ca flux in U87.CCR5 cells.

SMILES	EC50 (HIV-1 NL4.3 or IIIB) [µg/mL]	EC50 (HIV-1 BaL (CCR5 using)) [µg/mL]	inhibition at 20 µg/mL [1] [%]	inhibition at 20 µg/mL [2] [%]
c1ccc(-c2ccc3c(n2)C(N(Cc2ccc(CNCc4ccccn4)cc2)Cc2ccccn2)CCC3)cc1 (stereo not shown) [Example 12, N,N′-bis(2-pyridinylmethyl)-N′-(2-phenyl-5,6,7,8-tetrahydro-8-quinolinyl)-1,4-benzenedimethanamine]	< 20	< 20	> 20	–
c1ccc(CNCc2ccc(CN(CCCNCc3ccc4ccccc4c3)C3CCCc4cccnc43)cc2)nc1 (stereo not shown) [Example 22, N-(2-pyridinylmethyl)-N′-[3-((2-naphthalenylmethyl)amino)propyl]-N′-(5,6,7,8-tetrahydro-8-quinolinyl)-1,4-benzenedimethanamine]	–	–	> 20	> 20
c1ccc(CNCc2ccc(CN(C3CCNC3)C3CCCc4cccnc43)cc2)nc1 (stereo not shown) [Example 32, N-(2-pyridinylmethyl)-N′-3-pyrrolidinyl-N′-(5,6,7,8-tetrahydro-8-quinolinyl)-1,4-benzenedimethanamine]	< 20	< 20	–	–
c1ccc(CNCc2ccc(CN(C3CCNCC3)C3CCCc4cccnc43)cc2)nc1 (stereo not shown) [Example 33, N-(2-pyridinylmethyl)-N′-4-piperidinyl-N′-(5,6,7,8-tetrahydro-8-quinolinyl)-1,4-benzenedimethanamine]	< 20	< 20	–	–
c1ccc(NCCN(Cc2ccc(CNCc3ccccn3)cc2)C2CCCc3cccnc32)cc1 (stereo not shown) [Example 34, N-(2-pyridinylmethyl)-N′-[2-[(phenyl)amino]ethyl]-N′-(5,6,7,8-tetrahydro-8-quinolinyl)-1,4-benzenedimethanamine]	< 20	< 20	–	–
COc1ccc2c(c1)CCC(NCc1ccc(CNCc3ccccn3)cc1)C2 (stereo not shown) [Example 36, N-(2-pyridinylmethyl)-N′-(6-methoxy-1,2,3,4-tetrahydro-2-naphthalenyl)-1,4-benzenedimethanamine]	< 20	< 20	–	–
c1ccc(CNCc2ccc(CN(CCNCc3ccc4ccccc4c3)C3CCCc4cccnc43)cc2)nc1 (stereo not shown) [Example 47, N-(2-pyridinylmethyl)-N′-[2-[(2-naphthalenylmethyl)amino]ethyl]-N′-(5,6,7,8-tetrahydro-8-quinolinyl)-1,4-benzenedimethanamine]	< 20	–	> 20	> 20
c1ccc(CNCc2ccc(CN(CCNCc3ccco3)C3CCCc4cccnc43)cc2)nc1 (stereo not shown) [Example 50, N-(2-pyridinylmethyl)-N′-[2-[(2-furanylmethyl)amino]ethyl]-N′-(5,6,7,8-tetrahydro-8-quinolinyl)-1,4-benzenedimethanamine]	< 20	–	> 20	> 20
c1ccc(CNCc2ccc(CN(c3nc4ccccc4o3)C3CCCc4cccnc43)cc2)nc1 (stereo not shown) [Example 67, N-(2-pyridinylmethyl)-N′-(2-benzoxazolyl)-N′-(5,6,7,8-tetrahydro-8-quinolinyl)-1,4-benzenedimethanamine]	< 20	–	–	> 20
C[C@H](N)C(=O)N(Cc1ccc(CNCc2ccccn2)cc1)C1CCCc2cccnc21 (stereo partly shown) [Example 73, N-[[4-[[(2-pyridinylmethyl)amino]methyl]phenyl]methyl]-N-(5,6,7,8-tetrahydro-8-quinolinyl)-(L)-alaninamide]	–	–	> 20	> 20
O=C([C@@H]1CCCN1)N(Cc1ccc(CNCc2ccccn2)cc1)C1CCCc2cccnc21 (stereo partly shown) [Example 76, N-[[4-[[(2-pyridinylmethyl)amino]methyl]phenyl]methyl]-N-(5,6,7,8-tetrahydro-8-quinolinyl)-(L)-prolinamide]	–	–	> 20	> 20
NCCCC[C@H](N)C(=O)N(Cc1ccc(CNCc2ccccn2)cc1)C1CCCc2cccnc21 (stereo partly shown) [Example 77, N-[[4-[[(2-pyridinylmethyl)amino]methyl]phenyl]methyl]-N-(5,6,7,8-tetrahydro-8-quinolinyl)-(L)-lysinamide]	–	–	> 20	> 20
COc1ccc(CCN(Cc2ccc(CNC3CCCc4cccnc43)cc2)Cc2ccccn2)cc1 (stereo not shown) [Example 91, N-(2-pyridinylmethyl)-N-[2-(4-methoxyphenyl)ethyl]-N′-(5,6,7,8-tetrahydro-8-quinolinyl)-1,4-benzenedimethanamine]	< 20	< 20	–	–

Second part, led by results:

EC50 (HIV-1 NL4.3 or IIIB) [µg/mL]	EC50 (HIV-1 BaL (CCR5 using)) [µg/mL]	SMILES	inhibition at 20 µg/mL [1] [%]	inhibition at 20 µg/mL [2] [%]
< 20	< 20	c1ccc(CNCc2ccc(CNC3CCCc4ncccc43)cc2)nc1 (stereo not shown) [Example 13, N-(2-pyridinylmethyl)-N′-(5,6,7,8-tetrahydro-5-quinolinyl)-1,4-benzenedimethanamine]	–	–
< 20	< 20	c1ccc(CNCc2ccc(CN(Cc3ncc[nH]3)C3CCCc4ncccc43)cc2)nc1 (stereo not shown) [Example 14, N-(2-pyridinylmethyl)-N′-(1H-imidazol-2-ylmethyl)-N′-(5,6,7,8-tetrahydro-5-quinolinyl)-1,4-benzenedimethanamine]	–	–
< 20	< 20	c1ccc(CNCc2ccc(CN(Cc3c[nH]cn3)C3CCCc4cccnc43)cc2)nc1 (stereo not shown) [Example 17, N-(2-pyridinylmethyl)-N′-(1H-imidazol-4-ylmethyl)-N′-(5,6,7,8-tetrahydro-8-quinolinyl)-1,4-benzenedimethanamine]	> 20	–
< 20	< 20	Oc1cccc2c1CC(N(Cc1ccc(CNCc3ccccn3)cc1)Cc1ncc[nH]1)CC2 (stereo not shown) [Example 42, N-(2-pyridinylmethyl)-N′-(1H-imidazol-2-ylmethyl)-N′-(8-hydroxy-1,2,3,4-tetrahydro-2-naphthalenyl)-1,4-benzenedimethanamine]	–	–
< 20	–	Fc1cccc2c1CC(N(Cc1ccc(CNCc3ccccn3)cc1)Cc1ncc[nH]1)CC2 (stereo not shown) [Example 44, N-(2-pyridinylmethyl)-N′-(1H-imidazol-2-ylmethyl)-N′-(8-Fluoro-1,2,3,4-tetrahydro-2-naphthalenyl)-1,4-benzenedimethanamine]	–	> 20
< 20	–	c1ccc(CNCCN(Cc2ccc(CNCc3ccccn3)cc2)C2CCCc3cccnc32)nc1 (stereo not shown) [Example 49, N-(2-pyridinylmethyl)-N′-[2-[(2-pyridinylmethyl)amino]ethyl]-N′-(5,6,7,8-tetrahydro-8-quinolinyl)-1,4-benzenedimethanamine]	> 20	> 20
